US7420056B2, “Substituted bicyclic imidazo-3-ylamine compounds” (Gruenenthal GmbH, priority 2004, dated 2008)
Counter-ions that a name gives are not always drawn.

target: mGluR5 receptor (Sus scrofa, UniProt I3LUI7); experiment: Affinity for the mGluR5 receptor: inhibition of 3[H]-MPEP binding in pig brain homogenate; details: 10 μM compound, 5 nM 3[H]-MPEP, read-out: mGluR5 receptor inhibition of ^3[H]-MPEP binding [10 μM] in % at a concentration of the example compounds of 10 μM
How it was run: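 Pig brain membranes (450 μg protein; hemispheres without medulla, cerebellum and pons) in 30 mM Hepes pH 8.0 were incubated 60 min at room temperature with 5 nM [3H]-MPEP and compound at 10 μM. Bound radioactivity was filtered and counted. Nonspecific binding was defined with 10 μM MPEP.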

mGluR5 receptor, sequence (I3LUI7 19-1212): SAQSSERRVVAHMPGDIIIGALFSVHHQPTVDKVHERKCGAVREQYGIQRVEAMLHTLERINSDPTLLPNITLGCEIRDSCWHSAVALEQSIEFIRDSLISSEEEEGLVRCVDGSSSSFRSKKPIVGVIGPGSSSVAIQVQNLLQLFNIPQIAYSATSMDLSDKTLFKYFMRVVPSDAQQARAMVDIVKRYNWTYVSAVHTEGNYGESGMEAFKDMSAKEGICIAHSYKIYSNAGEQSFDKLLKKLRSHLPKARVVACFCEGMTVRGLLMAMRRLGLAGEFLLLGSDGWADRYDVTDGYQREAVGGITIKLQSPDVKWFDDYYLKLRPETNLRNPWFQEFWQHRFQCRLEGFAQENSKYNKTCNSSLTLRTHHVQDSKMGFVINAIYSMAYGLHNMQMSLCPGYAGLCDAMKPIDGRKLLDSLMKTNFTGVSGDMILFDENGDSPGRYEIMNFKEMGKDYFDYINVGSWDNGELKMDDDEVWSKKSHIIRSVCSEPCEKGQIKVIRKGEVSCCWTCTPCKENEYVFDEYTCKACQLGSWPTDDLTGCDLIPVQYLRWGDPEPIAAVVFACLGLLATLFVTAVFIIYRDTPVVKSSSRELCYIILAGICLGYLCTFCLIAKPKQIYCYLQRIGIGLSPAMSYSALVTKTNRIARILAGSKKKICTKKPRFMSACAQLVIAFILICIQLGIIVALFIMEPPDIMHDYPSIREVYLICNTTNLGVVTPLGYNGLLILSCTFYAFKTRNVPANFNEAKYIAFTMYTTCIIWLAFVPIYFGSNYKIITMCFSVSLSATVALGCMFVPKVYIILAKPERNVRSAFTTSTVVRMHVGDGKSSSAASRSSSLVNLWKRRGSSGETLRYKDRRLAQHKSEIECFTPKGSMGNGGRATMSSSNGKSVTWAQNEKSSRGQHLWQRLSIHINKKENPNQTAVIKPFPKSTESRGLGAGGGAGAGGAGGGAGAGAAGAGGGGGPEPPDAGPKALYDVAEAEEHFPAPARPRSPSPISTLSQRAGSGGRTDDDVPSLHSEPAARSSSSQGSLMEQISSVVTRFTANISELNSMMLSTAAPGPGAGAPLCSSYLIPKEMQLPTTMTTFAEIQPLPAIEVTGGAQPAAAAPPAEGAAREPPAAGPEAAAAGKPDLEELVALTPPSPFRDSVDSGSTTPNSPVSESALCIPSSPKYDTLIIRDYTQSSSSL

Question: Which inhibition at 10 µM does the source give for `CCCc1cccc2nc(-c3cc(C#Cc4ccccc4)cs3)c(NCCc3cccc(OC)c3)n12` [Example 233, N-(3-methoxyphenethyl)-2-(4-(phenylethynyl)thiophen-2-yl)-5-propylimidazo[1,2-a]pyridin-3-amine] here?
Answer: 75%

Question: `C(#Cc1ccc(-c2nc3ccccn3c2NC2CCCCC2)o1)c1ccccn1` [Example 286, N-cyclohexyl-2-(5-(pyridin-2-ylethynyl)furan-2-yl)imidazo[1,2-a]pyridin-3-amine] was tested. Which inhibition at 10 µM did it give?
Answer: 72%

Question: How did the inhibition at 10 µM turn out when `Cc1cccc(C#Cc2cccc(-c3nc4cnccn4c3NC3CCCCC3)c2)n1` [Example 251, N-cyclohexyl-2-(3-((6-methylpyridin-2-yl)ethynyl)phenyl)imidazo[1,2-a]pyrazin-3-amine] was run?
Answer: 80%

Question: With `Cc1cccn2c(Nc3ccc(F)cc3)c(-c3cccc(C#Cc4ccccn4)c3)nc12` [Example 296, N-(4-fluorophenyl)-8-methyl-2-(3-(pyridin-2-ylethynyl)phenyl)imidazo[1,2-a]pyridin-3-amine] as the molecule, how does the inhibition at 10 µM read?
Answer: 85%

Question: Which inhibition at 10 µM does the source give for `Cc1ccc2nc(-c3ccc(C#Cc4ccccn4)s3)c(NC(C)(C)CC(C)(C)C)n2c1` [Example 270, 6-methyl-2-(5-(pyridin-2-ylethynyl)thiophen-2-yl)-N-(2,4,4-trimethylpentan-2-yl)imidazo[1,2-a]pyridin-3-amine] here?
Answer: 93%

Question: For `CC(C)c1ccn2c(NC(C)(C)CC(C)(C)C)c(-c3ccc(C#Cc4ccccn4)s3)nc2c1` [Example 305, 7-isopropyl-2-(5-(pyridin-2-ylethynyl)thiophen-2-yl)-N-(2,4,4-trimethylpentan-2-yl)imidazo[1,2-a]pyridin-3-amine], which inhibition at 10 µM is on record?
Answer: 75%

Question: Which inhibition at 10 µM does the source give for `Clc1ccc2nc(-c3ccc(C#Cc4ccccn4)o3)c(NC3CCCCC3)n2c1` [Example 317, 6-chloro-N-cyclohexyl-2-(5-(pyridin-2-ylethynyl)furan-2-yl)imidazo[1,2-a]pyridin-3-amine] here?
Answer: 58%

Question: Which inhibition at 10 µM does the source give for `Clc1ccc2nc(-c3ccc(C#Cc4ccccn4)cc3)c(NC3CCCCC3)n2c1` [Example 315, 6-chloro-N-cyclohexyl-2-(4-(pyridin-2-ylethynyl)phenyl)imidazo[1,2-a]pyridin-3-amine] here?
Answer: 75%

Question: Which inhibition at 10 µM does the source give for `COc1ccc(CNc2c(-c3ccc(C#Cc4ccccc4)s3)nc3c(OCc4ccccc4)cccn23)cc1` [Example 15, [8-benzyloxy-2-(5-phenylethynyl-thiophen-2-yl)-imidazo[1,2-a]pyridin-3-yl]-(4-methoxy-benzyl)-amine] here?
Answer: 98%

Question: For `Cc1cc(Br)cn2c(NCCc3ccc(Cl)cc3)c(-c3cc(C#Cc4ccccc4)cs3)nc12` [Example 227, 6-bromo-N-(4-chlorophenethyl)-8-methyl-2-(4-(phenylethynyl)thiophen-2-yl)imidazo[1,2-a]pyridin-3-amine], which inhibition at 10 µM is on record?
Answer: 61%

Question: For `Cc1ccn2c(NC(C)c3ccccc3)c(-c3ccc(C#Cc4ccccc4)s3)nc2n1` (stereo not shown) [Example 36, [7-methyl-2-(5-phenylethynyl-thiophen-2-yl)-imidazo[1,2-a]pyrimidin-3-yl]-(1-phenyl-ethyl)-amine], which inhibition at 10 µM is on record?
Answer: 100%

Question: `CCCC(C)(C)Nc1c(-c2cc(C#Cc3ccccc3)cs2)nc2c(OCc3ccccc3)cccn12` [Example 220, 8-(benzyloxy)-N-(2-methylpentan-2-yl)-2-(4-(phenylethynyl)thiophen-2-yl)imidazo[1,2-a]pyridin-3-amine] was tested. Which inhibition at 10 µM did it give?
Answer: 31%

Question: Which inhibition at 10 µM does the source give for `Nc1c(-c2ccc(C#Cc3ccccc3)s2)nc2cnccn12` [Example 83, 2-(5-phenylethynyl-thiophen-2-yl)-imidazo[1,2-a]pyrazin-3-ylamine] here?
Answer: 35%

Question: With `Cc1ccn2c(NCC3CCCCC3)c(-c3ccc(C#Cc4ccccc4)s3)nc2c1` [Example 4, cyclohexylmethyl-[7-methyl-2-(5-phenylethynyl-thiophen-2-yl)-imidazo[1,2-a]pyridin-3-yl]-amine] as the molecule, how does the inhibition at 10 µM read?
Answer: 91%

Question: For `Cc1nc(C#Cc2ccccc2)ccc1-c1nc2cnccn2c1NC1CCCC1` [Example 243, N-cyclopentyl-2-(2-methyl-6-(phenylethynyl)pyridin-3-yl)imidazo[1,2-a]pyrazin-3-amine], which inhibition at 10 µM is on record?
Answer: 80%

Question: Which inhibition at 10 µM does the source give for `Cc1ccn2c(NC(C)c3ccccc3)c(-c3ccc(C#Cc4ccccc4)s3)nc2c1` (stereo not shown) [Example 28, [7-methyl-2-(5-phenylethynyl-thiophen-2-yl)-imidazo[1,2-a]pyridin-3-yl]-(1-phenyl-ethyl)-amine] here?
Answer: 98%

Question: With `C(#Cc1ccccn1)c1cccc(-c2nc3cnccn3c2NC2CCCCC2)c1` [Example 238, N-cyclohexyl-2-(3-(pyridin-2-ylethynyl)phenyl)imidazo[1,2-a]pyrazin-3-amine] as the molecule, how does the inhibition at 10 µM read?
Answer: 92%

Question: For `CCc1ccn2c(NC(C)(C)C)c(-c3ccc(C#Cc4ccccc4)nc3)nc2c1` [Example 303, N-tert-butyl-7-ethyl-2-(6-(phenylethynyl)pyridin-3-yl)imidazo[1,2-a]pyridin-3-amine], which inhibition at 10 µM is on record?
Answer: 67%

Question: Which inhibition at 10 µM does the source give for `CCCC(C)(C)Nc1c(-c2cc(C#Cc3ccccc3)cs2)nc2ccccn12` [Example 209, N-(2-methylpentan-2-yl)-2-(4-(phenylethynyl)thiophen-2-yl)imidazo[1,2-a]pyridin-3-amine] here?
Answer: 55%

Question: Which inhibition at 10 µM does the source give for `Cc1ccc2nc(-c3ccc(C#Cc4ccccn4)s3)c(NC3CCCCC3)n2c1` [Example 269, N-cyclohexyl-6-methyl-2-(5-(pyridin-2-ylethynyl)thiophen-2-yl)imidazo[1,2-a]pyridin-3-amine] here?
Answer: 94%

Question: With `CC(C)c1ccn2c(NC(C)(C)C)c(-c3ccc(C#Cc4ccccn4)cc3)nc2c1` [Example 307, N-tert-butyl-7-isopropyl-2-(4-(pyridin-2-ylethynyl)phenyl)imidazo[1,2-a]pyridin-3-amine] as the molecule, how does the inhibition at 10 µM read?
Answer: 88%

Question: Which inhibition at 10 µM does the source give for `CC(C)(C)CC(C)(C)Nc1c(-c2ccc(C#Cc3ccccc3)s2)nc2ccc(Cl)cn12` [Example 62, [6-chloro-2-(5-phenylethynyl-thiophen-2-yl)-imidazo[1,2-a]pyridin-3-yl]-(1,1,3,3-tetramethyl-butyl)-amine] here?
Answer: 26%

Question: For `CCc1ccn2c(NCc3cccc(C(F)(F)F)c3)c(-c3ccc(C#Cc4ccccc4)s3)nc2c1` [Example 53, [7-ethyl-2-(5-phenylethynyl-thiophen-2-yl)-imidazo[1,2-a]pyridin-3-yl]-(3-trifluoromethyl-benzyl)-amine], which inhibition at 10 µM is on record?
Answer: 80%

Question: For `C(#Cc1csc(-c2nc3cc(-c4ccccc4)ccn3c2NCCc2cccs2)c1)c1ccccc1` [Example 235, 7-phenyl-2-(4-(phenylethynyl)thiophen-2-yl)-N-(2-(thiophen-2-yl)ethyl)imidazo[1,2-a]pyridin-3-amine], which inhibition at 10 µM is on record?
Answer: 32%

Question: Which inhibition at 10 µM does the source give for `CCCc1ccn2c(Nc3ccco3)c(-c3ccc(C#Cc4ccccc4)o3)nc2c1` [Example 225, N-(furan-2-yl)-2-(5-(phenylethynyl)furan-2-yl)-7-propylimidazo[1,2-a]pyridin-3-amine] here?
Answer: 43%

Question: How did the inhibition at 10 µM turn out when `Cc1cc(Br)cn2c(NCCc3cccs3)c(-c3cc(C#Cc4ccccc4)cs3)nc12` [Example 234, 6-bromo-8-methyl-2-(4-(phenylethynyl)thiophen-2-yl)-N-(2-(thiophen-2-yl)ethyl)imidazo[1,2-a]pyridin-3-amine] was run?
Answer: 64%

Question: `CC(C)(C)CC(C)(C)Nc1c(-c2ccc(C#Cc3ccccn3)o2)nc2ccc(Cl)cn12` [Example 318, 6-chloro-2-(5-(pyridin-2-ylethynyl)furan-2-yl)-N-(2,4,4-trimethylpentan-2-yl)imidazo[1,2-a]pyridin-3-amine] was tested. Which inhibition at 10 µM did it give?
Answer: 43%

same assay, conditions: 3[H]-MPEP binding

Question: How did the IC50 turn out when `CC(Nc1c(-c2ccc(C#Cc3ccccc3)s2)nc2cnccn12)c1ccccc1` (stereo not shown) [Example 31, (1-phenyl-ethyl)-[2-(5-phenylethynyl-thiophen-2-yl)-imidazo[1,2-a]pyrazin-3-yl]-amine] was run?
Answer: 530 nM

Question: With `CCNc1c(-c2ccc(C#Cc3ccccc3)s2)nc2cnccn12` [Example 68, ethyl-[2-(5-phenylethynyl-thiophen-2-yl)-imidazo[1,2-a]pyrazin-3-yl]-amine] as the molecule, how does the IC50 read?
Answer: 2320 nM

Question: `COC(=O)CNc1c(-c2ccc(C#Cc3ccccc3)s2)nc2cnccn12` [Example 75, [2-(5-phenylethynyl-thiophen-2-yl)-imidazo[1,2-a]pyrazin-3-ylamino]-acetic acid methyl ester] was tested. Which IC50 did it give?
Answer: 1290 nM

Question: `CC(C)(C)Nc1c(-c2cccc(C#Cc3ccccn3)c2)nc2cnccn12` [Example 111, N-tert-butyl-2-(3-(pyridin-2-ylethynyl)phenyl)imidazo[1,2-a]pyrazin-3-amine] was tested. Which IC50 did it give?
Answer: 1370 nM

Question: With `CC(C)(C)Nc1c(-c2ccc(C#Cc3cccc(O)c3)s2)nc2cnccn12` [Example 122, 3-((5-(3-(tert-butylamino)imidazo[1,2-a]pyrazin-2-yl)thiophen-2-yl)ethynyl)phenol] as the molecule, how does the IC50 read?
Answer: 130 nM

Question: How did the IC50 turn out when `CC(C)(C)Nc1c(-c2ccc(C#Cc3ccccc3)s2)nc2ccc3ccccc3n12` [Example 115, N-tert-butyl-2-(5-(phenylethynyl)thiophen-2-yl)imidazo[1,2-a]quinolin-1-amine] was run?
Answer: 7740 nM

Question: Which IC50 does the source give for `CC(C)(C)Nc1c(-c2ccc(C#Cc3cccc(CN)c3)s2)nc2cnccn12` [Example 154, 2-(5-((3-(aminomethyl)phenyl)ethynyl)thiophen-2-yl)-N-tert-butylimidazo[1,2-a]pyrazin-3-amine] here?
Answer: 590 nM

Question: With `COc1cncc(C#Cc2ccc(-c3nc4cnccn4c3NC(C)(C)C)s2)c1` [Example 171, N-tert-butyl-2-(5-((5-methoxypyridin-3-yl)ethynyl)thiophen-2-yl)imidazo[1,2-a]pyrazin-3-amine hydrochloride] as the molecule, how does the IC50 read?
Answer: 360 nM

Question: `CC(C)(C)Nc1c(-c2ccc(C#Cc3ccccc3N)s2)nc2cnccn12` [Example 124, 2-(5-((2-aminophenyl)ethynyl)thiophen-2-yl)-N-tert-butylimidazo[1,2-a]pyrazin-3-amine hydrochloride] was tested. Which IC50 did it give?
Answer: 170 nM

Question: For `CC(C)(C)Nc1c(-c2nc(C#Cc3ccccc3)cs2)nc2cnccn12` [Example 138, N-tert-butyl-2-(4-(phenylethynyl)thiazol-2-yl)imidazo[1,2-a]pyrazin-3-amine], which IC50 is on record?
Answer: 15100 nM
